{"source": "ChEMBL document CHEMBL1201862", "about": "“PubChem BioAssay data set” (2004)", "experiment_in_all_cases": "inhibition of tumour cell growth, NCI panel, 48 h", "key": {"UACC-257": {"system": "UACC-257"}, "SNB-78": {"system": "SNB-78"}, "ACHN": {"system": "ACHN"}, "SF-539": {"system": "SF-539"}, "NCI-H23": {"system": "NCI-H23"}, "HL-60": {"system": "HL-60"}, "IGROV-1": {"system": "IGROV-1"}, "K562": {"system": "K562"}, "LXFL 529": {"system": "LXFL 529"}, "786-0": {"system": "786-0"}, "HT-29": {"system": "HT-29"}, "CAKI-1": {"system": "CAKI-1"}, "MDA-MB-231": {"system": "MDA-MB-231"}, "PC-3": {"system": "PC-3"}, "HCT-15": {"system": "HCT-15"}, "HCT-116": {"system": "HCT-116"}, "LOX IMVI": {"system": "LOX IMVI"}, "NCI-H460": {"system": "NCI-H460"}, "SR": {"system": "SR"}, "KM12": {"system": "KM12"}}, "note": "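These data come from cells grown in 96-well plates and exposed to compound for 48 hours at five concentrations. GI50 = concentration required for 50% inhibition of growth.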 Activity calls are given as the source filed them. No stated cut-off is given here; in the data, active = GI50 up to about 1.1 µM and inactive = higher.", "data": [{"molecule": "COc1cccc2c1C(=O)c1c(O)c3c(c(O)c1C2=O)C[C@@](O)(C(C)=O)C[C@@H]3OC1CC(N(Cc2ccccc2)Cc2ccccc2)C(O)C(C)O1", "note": "(stereo partly drawn)", "values": [{"measurement": "GI50", "setting": "UACC-257", "result": "26.4 µM (inactive)"}, {"measurement": "GI50", "setting": "SNB-78", "result": "2.56 µM (inactive)"}, {"measurement": "GI50", "setting": "ACHN", "result": "0.51 µM (active)"}, {"measurement": "GI50", "setting": "SF-539", "result": "10.9 µM (inactive)"}, {"measurement": "GI50", "setting": "NCI-H23", "result": "18.6 µM (inactive)"}, {"measurement": "GI50", "setting": "HL-60", "result": "9.55 µM (inactive)"}, {"measurement": "GI50", "setting": "IGROV-1", "result": "9.55 µM (inactive)"}, {"measurement": "GI50", "setting": "K562", "result": "3.64 µM (inactive)"}, {"measurement": "GI50", "setting": "LXFL 529", "result": "0.69 µM (active)"}, {"measurement": "GI50", "setting": "786-0", "result": "0.713 µM (active)"}, {"measurement": "GI50", "setting": "HT-29", "result": "0.474 µM (active)"}, {"measurement": "GI50", "setting": "CAKI-1", "result": "6.03 µM (inactive)"}, {"measurement": "GI50", "setting": "MDA-MB-231", "result": "10.9 µM (inactive)"}, {"measurement": "GI50", "setting": "PC-3", "result": "6.61 µM (inactive)"}, {"measurement": "GI50", "setting": "HCT-15", "result": 4.95, "unit": "µM"}, {"measurement": "GI50", "setting": "HCT-116", "result": "1.84 µM (inactive)"}, {"measurement": "GI50", "setting": "LOX IMVI", "result": "5 µM (inactive)"}, {"measurement": "GI50", "setting": "NCI-H460", "result": "0.653 µM (active)"}, {"measurement": "GI50", "setting": "SR", "result": "0.101 µM (active)"}, {"measurement": "GI50", "setting": "KM12", "result": "13.1 µM (inactive)"}]}, {"molecule": "O=c1cccccc1NCCNc1cccccc1=O", "values": [{"measurement": "GI50", "setting": "UACC-257", "result": "> 100 µM (inactive)"}, {"measurement": "GI50", "setting": "SNB-78", "result": "> 100 µM (inactive)"}, {"measurement": "GI50", "setting": "ACHN", "result": "> 100 µM (inactive)"}, {"measurement": "GI50", "setting": "SF-539", "result": "> 100 µM (inactive)"}, {"measurement": "GI50", "setting": "NCI-H23", "result": "> 100 µM (inactive)"}, {"measurement": "GI50", "setting": "HL-60", "result": "> 100 µM (inactive)"}, {"measurement": "GI50", "setting": "IGROV-1", "result": "> 100 µM (inactive)"}, {"measurement": "GI50", "setting": "K562", "result": "> 100 µM (inactive)"}, {"measurement": "GI50", "setting": "LXFL 529", "result": "> 100 µM (inactive)"}, {"measurement": "GI50", "setting": "786-0", "result": "> 100 µM (inactive)"}, {"measurement": "GI50", "setting": "HT-29", "result": "> 100 µM (inactive)"}, {"measurement": "GI50", "setting": "CAKI-1", "result": "> 100 µM (inactive)"}, {"measurement": "GI50", "setting": "HCT-15", "result": "> 100", "unit": "µM"}, {"measurement": "GI50", "setting": "HCT-116", "result": "> 100 µM (inactive)"}, {"measurement": "GI50", "setting": "LOX IMVI", "result": "> 100 µM (inactive)"}, {"measurement": "GI50", "setting": "NCI-H460", "result": "> 100 µM (inactive)"}, {"measurement": "GI50", "setting": "SR", "result": "> 100 µM (inactive)"}, {"measurement": "GI50", "setting": "KM12", "result": "> 100 µM (inactive)"}]}]}
